The nature of this data set: gradient 5% acetonitrile 3 min, to 50% in 2 min, to 85% in 15 min, held 3 min, 100 µL/min. The settings on record: column: Zorbax Extend-C18 2.1 x 50 mm; eluents: water / acetonitrile, 0.1% formic acid. The method in brief: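 A Zorbax Extend-C18 column (2.1 × 50 mm, 1.8 μm) run at 100 μL/min with water and acetonitrile, both containing 0.1% formic acid, separated mixtures of ~100 pure standards. The HPLC was coupled to a quadrupole time-of-flight mass spectrometer operated in positive and negative ionization mode, with dead and dwell volumes of 40 μL and 900 μL. Each retention time was taken from a computationally picked adduct peak that was then manually inspected.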
For `CCOc1ccc(-n2c(=O)c3sccc3n(Cc3nc(-c4ccc(CC)cc4)no3)c2=O)cc1`, the RP-LC retention time worked out at 1170 s. Then `CCNC(=O)c1cc(C)nc2c(C)cccc12`, with 568 s; and `COc1ccccc1NC(=O)C1CCc2nc(N3CCCCC3)ncc2C1` (configuration not stated), with 811 s. To `O=C(CCc1c(-c2ccc(F)cc2)nc2ccccn12)Nc1cccc(Br)c1` belongs 730 s; to `COc1ccc(NC(=O)C2CCN(c3nnc4ccc(Cl)cn34)CC2)c(OC)c1`, 723 s. Then `Cc1ccc(C(O)CN2CCN(c3ccccc3)CC2)c(C)c1` (configuration not stated), with 703 s; and `COC(=O)c1ccc2c(=O)n(-c3cc(OC)cc(OC)c3)c(N3CCC(C(N)=O)CC3)nc2c1`, with 736 s. The compound `Cc1cc(C(=O)NCC2CCN(C(=O)Nc3ccc(F)cc3)CC2)c(C)o1` displayed an RP-LC retention time of 750 s. As to `Clc1ccc(Cl)c(-c2ccc(CNCc3cccs3)o2)c1`, the RP-LC retention time amounted to 772 s. To `Cc1ccc(-c2nnc(-c3ccc(N4CCC(C)CC4)nc3)o2)cc1` belongs 1310 s; to `O=C(Cn1c(N2CCCCC2)nc2ccccc2c1=O)NCc1cccc(Cl)c1`, 659 s; to `COCCn1nc(N2CCCC(NS(=O)(=O)c3c(C)c(C)cc(C)c3C)C2)ccc1=O` (configuration not stated), 875 s.

Regarding `Cc1ccc(Nc2nc(-c3ccc(I)cc3)cs2)cc1C`, the RP-LC retention time is 1120 s. As for `CCOc1ccc(CCNC(=O)c2cc3sc(Cl)cc3n2C)cc1OCC`, the RP-LC retention time worked out at 1110 s. To `Cc1cc2nn(CC(=O)Nc3ccc(F)c(Cl)c3)c(=O)n2c(N2CCCC2)n1` belongs 836 s; to `Cc1cc2n(n1)CCCN2C(=O)CCC(=O)N1CCN(c2ccc(Cl)cc2)CC1`, 758 s. To `O=C(NCCN1CCOCC1)c1ccc(-c2c(-c3ccc(F)cc3)ncn2C2CCCCC2)o1` belongs 605 s. For `CCOc1ccc(NC(=O)N2CCN(c3ccc(=O)n(-c4ccc(C)cc4)n3)CC2)cc1`, the RP-LC retention time worked out at 802 s. Then `Cc1sc2ccn(Cc3ccc(F)cc3)c(=O)c2c1C(=O)NCCCN1CCOCC1`, with 629 s; and `CCc1ccc(C2=C(C)C(N3CCCN(C(=O)C(C)C)CC3)=NS2(=O)=O)cc1`, with 824 s; and `O=c1c2sccc2n(Cc2nc(-c3ccccc3)no2)c(=O)n1Cc1ccc(F)cc1`, with 1040 s. Then `Cc1noc(C)c1S(=O)(=O)N1CCC(n2c(C)cnc2-c2ccncc2)C1` (configuration not stated), with 616 s. In the case of `CC1(C)CC2CC(C)(CN2c2nc(-c3ccc([N+](=O)[O-])cc3)nc3ccccc23)C1` (configuration not stated), the RP-LC retention time is 1050 s. Then `CCN(C(=O)c1nc(C)n(C2CCN(S(C)(=O)=O)CC2)c1C)c1ccccc1`, with 610 s; and `O=C(Nc1ccc2c(c1)OCCO2)NC1CCN(c2ccc(F)cc2)C1=O` (configuration not stated), with 762 s. Then `O=C(c1nc(-c2ccccc2)nc2c1OCO2)N1CCCC1`, with 815 s; and `COCCCNC(=O)C1CCN(c2nnc(-c3ccccc3)o2)CC1`, with 659 s. To `O=C(Cn1ccn2nc(-c3ccc(F)cc3)c(CO)c2c1=O)Nc1cc(F)ccc1Cl` belongs 894 s; to `CN1CCCn2cc(S(=O)(=O)Nc3ccc(F)cc3Cl)cc2C1=O`, 696 s. `CN1CCn2cc(S(=O)(=O)Nc3ccc(F)c(F)c3)cc2C1=O` registered an RP-LC retention time of 671 s. Then `O=C(NCCc1csc(-c2cccs2)n1)C1CCN(C(=O)c2cccc(F)c2)CC1`, with 768 s; and `Cc1ccc(C)c(C(O)Cn2ccn3nc(-c4cccs4)cc3c2=O)c1` (configuration not stated), with 915 s.

Source of the values: the METLIN SMRT retention time set (Domingo-Almenara et al. 2019).
